Assay results reported in patent US8445539B2, “Alpha-aminoamide derivatives useful in the treatment of psychiatric disorders” (priority 2007, dated 2013).
pIC50: −log10 of the molar value.

Tests used:
Dopamine D1 = Dopamine D1 (Homo sapiens, UniProt P21728); experiment: Dopamine receptor radioligand binding assay; details: inhibition of specific binding
Protocol: (§1) The assays were performed, under standard conditions, as described in the following publications: Dearry A et al., Nature; 1990; 347: 72-76; Bunzow J R et al., Nature; 1988; 336: 783-787; Sokoloff P. et al., Nature; 1990; 347: 146-151; Van Tol H H M et al., Nature; 1991; 350: 610-614; Van Tol H H M et al., Nature; 1992; 358: 149-152; Sibley D R et al., Trend Pharmacol. Sci.; 1992; 13:61-69.
(§2) Biochemical assay results are presented as the percent inhibition of specific bindings at a single compound concentration. Responses are considered significant for binding activities >50%.

Dopamine D2L = Dopamine D2L (Homo sapiens, UniProt P14416); experiment: Dopamine receptor radioligand binding assay; details: inhibition of specific binding
Dopamine D2L, sequence (P14416 whole entry): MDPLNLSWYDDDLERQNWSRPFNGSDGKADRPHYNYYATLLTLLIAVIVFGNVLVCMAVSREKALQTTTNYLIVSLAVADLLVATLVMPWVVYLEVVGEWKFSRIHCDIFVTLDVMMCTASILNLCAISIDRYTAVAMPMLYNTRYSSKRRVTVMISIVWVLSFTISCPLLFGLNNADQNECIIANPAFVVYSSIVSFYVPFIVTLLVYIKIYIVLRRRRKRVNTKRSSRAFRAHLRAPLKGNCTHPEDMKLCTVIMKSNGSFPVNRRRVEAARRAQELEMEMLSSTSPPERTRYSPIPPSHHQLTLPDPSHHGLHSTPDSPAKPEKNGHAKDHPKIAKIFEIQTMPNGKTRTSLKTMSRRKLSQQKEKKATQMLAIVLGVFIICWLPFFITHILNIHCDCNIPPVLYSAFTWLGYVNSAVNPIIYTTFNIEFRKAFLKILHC
Protocol: as §1, §2

Dopamine D2S = Dopamine D2S (Homo sapiens, UniProt P14416); experiment: Dopamine receptor radioligand binding assay; details: inhibition of specific binding
Dopamine D2S, sequence (P14416 1-414 isoform P14416-2): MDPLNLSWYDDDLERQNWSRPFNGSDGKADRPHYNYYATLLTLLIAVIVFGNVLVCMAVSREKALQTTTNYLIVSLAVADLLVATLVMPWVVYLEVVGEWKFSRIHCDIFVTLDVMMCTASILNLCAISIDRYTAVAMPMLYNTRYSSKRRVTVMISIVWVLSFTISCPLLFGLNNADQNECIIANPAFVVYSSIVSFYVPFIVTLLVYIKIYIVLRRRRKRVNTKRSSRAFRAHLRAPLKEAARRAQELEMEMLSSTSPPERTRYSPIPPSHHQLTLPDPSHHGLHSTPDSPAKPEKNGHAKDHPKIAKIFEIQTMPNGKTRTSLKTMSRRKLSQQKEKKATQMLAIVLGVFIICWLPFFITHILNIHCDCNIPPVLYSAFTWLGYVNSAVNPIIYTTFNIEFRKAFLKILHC
Protocol: as §1, §2

Dopamine D3 = Dopamine D3 (Homo sapiens, UniProt P35462); experiment: Dopamine receptor radioligand binding assay; details: inhibition of specific binding
Dopamine D3, sequence (P35462 whole entry): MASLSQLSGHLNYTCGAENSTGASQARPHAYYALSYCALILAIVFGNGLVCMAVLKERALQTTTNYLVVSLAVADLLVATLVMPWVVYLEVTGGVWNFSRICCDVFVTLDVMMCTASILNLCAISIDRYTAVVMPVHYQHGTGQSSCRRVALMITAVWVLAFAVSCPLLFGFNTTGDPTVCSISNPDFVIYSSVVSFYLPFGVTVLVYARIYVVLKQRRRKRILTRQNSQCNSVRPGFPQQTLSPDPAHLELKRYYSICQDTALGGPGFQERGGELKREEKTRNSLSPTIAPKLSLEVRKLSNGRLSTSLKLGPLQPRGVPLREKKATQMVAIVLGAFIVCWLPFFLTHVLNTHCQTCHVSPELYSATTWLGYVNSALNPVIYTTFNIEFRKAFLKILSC
Protocol: as §1, §2

Dopamine D4.2 = experiment: Dopamine receptor radioligand binding assay; details: inhibition of specific binding
Protocol: as §1, §2

Dopamine D4.4 = biological target: T1, Dopamine D4.4 (Homo sapiens, UniProt P21917); experiment: Dopamine receptor radioligand binding assay; details: inhibition of specific binding
T1 sequence (P21917 1-419): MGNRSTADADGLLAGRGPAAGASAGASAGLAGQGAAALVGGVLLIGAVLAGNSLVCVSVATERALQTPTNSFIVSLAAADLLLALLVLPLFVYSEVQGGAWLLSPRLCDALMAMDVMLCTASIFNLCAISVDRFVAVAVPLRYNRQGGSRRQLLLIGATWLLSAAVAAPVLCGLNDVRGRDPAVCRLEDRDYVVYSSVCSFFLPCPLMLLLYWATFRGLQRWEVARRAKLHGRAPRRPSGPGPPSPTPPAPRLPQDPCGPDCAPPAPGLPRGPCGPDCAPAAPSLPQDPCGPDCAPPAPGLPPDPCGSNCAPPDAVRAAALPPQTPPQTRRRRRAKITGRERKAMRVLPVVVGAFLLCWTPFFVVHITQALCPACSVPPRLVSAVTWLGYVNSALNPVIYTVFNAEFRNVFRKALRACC
Protocol: as §1, §2

Dopamine D4.7 = experiment: Dopamine receptor radioligand binding assay; details: inhibition of specific binding
Protocol: as §1, §2

Dopamine D5 = Dopamine D5 (Homo sapiens, UniProt P21918); experiment: Dopamine receptor radioligand binding assay; details: inhibition of specific binding
Dopamine D5, sequence (P21918 whole entry): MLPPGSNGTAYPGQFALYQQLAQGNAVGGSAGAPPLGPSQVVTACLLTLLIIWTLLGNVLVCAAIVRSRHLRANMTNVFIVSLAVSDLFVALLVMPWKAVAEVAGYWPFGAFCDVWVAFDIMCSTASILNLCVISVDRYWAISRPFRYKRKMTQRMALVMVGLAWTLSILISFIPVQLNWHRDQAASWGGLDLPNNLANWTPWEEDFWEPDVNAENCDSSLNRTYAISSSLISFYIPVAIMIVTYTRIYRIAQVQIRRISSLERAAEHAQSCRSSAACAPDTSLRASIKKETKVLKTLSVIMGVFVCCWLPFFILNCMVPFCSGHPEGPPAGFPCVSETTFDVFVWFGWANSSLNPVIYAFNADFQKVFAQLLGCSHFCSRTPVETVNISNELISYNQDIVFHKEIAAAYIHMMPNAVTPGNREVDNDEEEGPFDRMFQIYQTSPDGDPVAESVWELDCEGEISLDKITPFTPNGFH
Protocol: as §1, §2

NMDA receptor complex = experiment: Inhibition of NMDA receptor complex, whole cell patch clamp in cortical neurons; type: cell-based; details: primary rat cortical neurons; holding -70 mV; NMDA 100 μM + glycine 10 μM; read-out: IC50 of NMDA-induced currents
Protocol: Cortical neurons were prepared from embryonic Wistar rats (E17-E19). A female rat at date 17-19 of pregnancy was anesthetized and sacrificed. The foetuses (n=4-5) were dissected and placed in ice-cold Hank's solution (Hank's solution (Life tech. 14170-088)+glucose 30%+Pen-Strep 100× (Life Tech. 15140-122) 100 U-100 μg/mL and Hepes-NaOH 5 mM).
The brain of the foetuses was cut in two halves, and each cortex was cut in smaller parts with a scissors, the pieces were transferred to a 15 mL centrifuge tube using a 5 mL pipette and washed twice with Hank's solution. […]
Cells were counted and diluted in Neurobasal medium to a concentration of 400000 cells per poly-D-lysine 5 μg/mL treated Petri dish. […]
Experiments on cortical neurons were carried out using standard whole cell patch clamp methods (Hamill et al., 1981. Pflügers Archly: European Journal of Physiology 391(2):85-100). Membrane currents were recorded and filtered at 5 kHz with an Axon Axopatch 200B amplifier and data digitized with an Axon Digidata 1322A (Axon Instruments, CA, USA). […]
Data were analyzed using Clampfit 9 (Axon Instruments, CA) and Origin 7.5 (Microcal Inc., Northampton, Mass., USA) software. Data points and results were expressed as arithmetic mean±S.E. […]

Dopamine D1, sequence (P21728 whole entry): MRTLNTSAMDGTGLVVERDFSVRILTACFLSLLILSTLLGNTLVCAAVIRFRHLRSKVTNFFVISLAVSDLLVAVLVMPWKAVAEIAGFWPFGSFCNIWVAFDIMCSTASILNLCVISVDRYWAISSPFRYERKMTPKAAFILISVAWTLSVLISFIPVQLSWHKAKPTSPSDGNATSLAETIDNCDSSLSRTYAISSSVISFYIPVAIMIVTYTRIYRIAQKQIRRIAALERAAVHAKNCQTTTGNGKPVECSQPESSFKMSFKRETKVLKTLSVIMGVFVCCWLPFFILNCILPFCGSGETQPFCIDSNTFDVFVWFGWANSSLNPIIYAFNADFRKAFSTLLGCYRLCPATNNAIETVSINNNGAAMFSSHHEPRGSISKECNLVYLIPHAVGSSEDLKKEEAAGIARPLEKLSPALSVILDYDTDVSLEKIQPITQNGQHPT

C[C@H](NCc1ccc(OCc2ccccc2F)cc1)C(N)=O [Ralfinamide methanesulfonate, (S)-(+)-2-[4-(2-fluorobenzyloxy)benzylamino]propanamide]
% Inhibition at 10 μm (Dopamine D1): no inhibition | % Inhibition at 10 μm (Dopamine D2L): no inhibition | % Inhibition at 10 μm (Dopamine D2S): no inhibition | % Inhibition at 10 μm (Dopamine D3): 7% | % Inhibition at 10 μm (Dopamine D4.2): 1% | % Inhibition at 10 μm (Dopamine D4.4): no inhibition | % Inhibition at 10 μm (Dopamine D4.7): no inhibition | % Inhibition at 10 μm (Dopamine D5): no inhibition | pIC50 (NMDA receptor complex): 5.14
